Measured values from patent US20160083424A1, “COMPOSITIONS AND METHODS FOR TARGETING ANTIGEN-PRESENTING CELLS” (OSLO UNIVERSITETSSYKEHUS HF, priority 2013, published 2016).
Blank lines part the entries; values can stand above or below the molecule they belong to. Where no end group is shown, it is not given here. siRNA = not defined here

What was measured:
[1] = system: CD8 T cells specific for the NLVPMVATV epitope; test: Dextramer staining of CD8 T cells after stimulation with peptide-exposed DCs; type: cell-based, human; details: DC-stimulated CD8 T cells, CMV positive donors, equal molar concentrations, n=3
Experimental: (§1) Peptides at a concentration of 5 μg/ml were incubated with semi mDCs from HLA-A2/CMV-positive donors for 60 min at 4° C. Subsequently, they were washed to remove unbound peptides. Autologous stimulation was done in 96-well tissue culture plates in X-vivo 15 medium. Briefly, DCs were mixed with 10^5 autologous CD4 or CD8 T cells at a DC/lymphocytes ratios of 1/5 and 1/10 in a final volume of 250 μl. Cells were incubated for 5 days and then they were pulsed with [^3H] thymidine and harvested 16 h later. [^3H] thymidine incorporation was measured in a β-scintillation counter. In some experiments, the cells were cultured for 8 days and then stained with dextramers specific for pp65 NLVPMVATV (SEQ ID NO:19) epitope.
(§2) Dextramers with CMV (NLVPMVATV) (SEQ ID NO:19) and HIV (ILKEPVHGV) (SEQ ID NO:22) HLA-A2 specific antigens were obtained from Immudex (Copenhagen, Denmark). Antibodies against human CD8, CD19 and CD56 were obtained from eBioscience (San Diego, Calif., USA). […] Cells were washed and resuspended in SB containing 1% paraformaldehyd and analyzed on a BD SLR II flow cytometer. The data were analyzed using FCS Express (De Novo Software, Los Angeles, Calif., USA).

PBMCs = test: Autologous stimulation of PBMCs with pp65 targeted peptides, [3H] thymidine incorporation; type: cell-based, human; details: whole PBMCs, peptides at 4° C., 5 days at 37° C.
Experimental: (§3) PBMC from HLA-A2/CMV+ donors were thawed, washed and then incubated with the peptides (5 μg/ml) for 60 min at 4° C. Subsequently, the cells were washed twice and then plated at 2×10^5 cells per well in 96-well tissue culture plate. Cells were cultured for 5 days and subsequently they were pulsed with [^3H] thymidine and harvested 16 h later. In some experiments, the cells were cultured for 12 days and then stained with dextramers specific for pp65 NLVPMVATV (SEQ ID NO:19) epitope. Monocyte-depleted PBMCs were also used. To analyze primary immune responses against pp65 protein, PBMCs from HLA-A2+/CMV-negative donors were used. Autologous DCs were incubated with either NW-pp65 or GA-pp65 peptide (5 μg/ml) at 4° C. for 1 h, followed by three washes to remove unbound peptides. Subsequently, the cells were incubated with CD45RO-depleted PBMC (responder cells) and co-cultured for 10 days at ratio 1/10 (DC to responder cells) in X-vivo 15 medium supplemented with 10 ng/ml human IL-7 for 10 days. After 2 rounds of stimulation (8 days each) with autologous DC loaded with peptides, the cells were stained with dextramers specific for pp65 NLVPMVATV (SEQ ID NO:19) epitope. To test spontaneous uptake of peptides by DCs, PBMCs from HLA-A2+/CMV positive donors were incubated at 37° C. with various concentrations of untargeted or targeted pp65 peptide for 90 min. […]

[2] = system: pp65-specific naïve T cells; test: Induction of CMV-pp65-specific T cells from naive donor repertoire, dextramer staining; type: cell-based, human; details: CD45RO-depleted PBMCs, HLA-A2+/CMV negative donors, IL-7, representative example
Experimental: as §3, with “days.” for “days. After 2 rounds of stimulation (8 days each) with autologous DC loaded with peptides, the cells were stained with dextramers specific for pp65 NLVPMVATV (SEQ ID NO:19) epitope. To test spontaneous uptake of peptides by DCs, PBMCs from HLA-A2+/CMV positive donors were incubated at 37° C. with various concentrations of untargeted or targeted pp65 peptide for 90 min.”
as §2, with “Denmark).” for “Denmark). Antibodies against human CD8, CD19 and CD56 were obtained from eBioscience (San Diego, Calif., USA).”, “USA). […]” for “USA).”

[3] = system: PBMC cultures from CMV-positive donors; test: IFN-γ production in PBMC cultures; type: cell-based, human; details: PBMCs from HLA-A2+/CMV positive
Experimental: (A) PBMCs from HLA-A2+/CMV-positive donors were incubated with the indicated fusion peptides for 60 min at 4° C., washed and then incubated at 37° C. for […]. T-cell proliferation was monitored by thymidine incorporation. (B) Dextramer staining of CD8 T cells against NLVPMVATV (SEQ ID NO:19) epitope. (C) As in A and B, but monocyte-depleted PBMCs were used. (D) INF-γ and IL-10 levels in PBMC culture supernatants determined by ELISA.
Next, the immunostimulatory potential of the NW-pp65 fusion peptide was evaluated by assessing its ability to stimulate the overall IFN-γ and IL-10 production in PBMC cultures from CMV-positive donors (FIG. 8D).

[4] = system: CD8 T cells against NLVPMVATV epitope; test: Dextramer staining of CD8 T cells after PBMC stimulation with pp65 peptides; type: cell-based, human
Experimental: PBMC from HLA-A2/CMV+ donors were thawed, washed and then incubated with the peptides (5 μg/ml) for 60 min at 4° C. Subsequently, the cells were washed twice and then plated at 2×10^5 cells per well in 96-well tissue culture plate. Cells were cultured for 5 days and subsequently they were pulsed with [^3H] thymidine and harvested 16 h later. In some experiments, the cells were cultured for 12 days and then stained with dextramers specific for pp65 NLVPMVATV (SEQ ID NO:19) epitope. Monocyte-depleted PBMCs were also used. To analyze primary immune responses against pp65 protein, PBMCs from HLA-A2+/CMV-negative donors were used. Autologous DCs were incubated with either NW-pp65 or GA-pp65 peptide (5 μg/ml) at 4° C. for 1 h, followed by three washes to remove unbound peptides. Subsequently, the cells were incubated with CD45RO-depleted PBMC (responder cells) and co-cultured for 10 days at ratio 1/10 (DC to responder cells) in X-vivo 15 medium supplemented with 10 ng/ml human IL-7 for 10 days. After 2 rounds of stimulation (8 days each) with autologous DC loaded with peptides, the cells were stained with dextramers specific for pp65 NLVPMVATV (SEQ ID NO:19) epitope. To test spontaneous uptake of peptides by DCs, PBMCs from HLA-A2+/CMV positive donors were incubated at 37° C. with various concentrations of untargeted or targeted pp65 peptide for 90 min. Subsequently, the cells were washed to remove unbound peptides and cultured at 37° C. for 12 days and then stained with dextramers specific for pp65 NLVPMVATV (SEQ ID NO:19) epitope.
Dextramers with CMV (NLVPMVATV) (SEQ ID NO:19) and HIV (ILKEPVHGV) (SEQ ID NO:22) HLA-A2 specific antigens were obtained from Immudex (Copenhagen, Denmark). Antibodies against human CD8, CD19 and CD56 were obtained from eBioscience (San Diego, Calif., USA). Briefly, around 10^6 cells were washed and resuspended in 50 μl staining buffer SB (PBS with 0.1% human serum albumin and 0.1% NaN3) containing 1 mg/ml aggregated α-globulin and then stained with dextramer for 10 min in the dark at room temperature. Subsequently, antibodies against CD8, CD19 and CD56 were added and incubation continued for additional 20 min. Cells were washed and resuspended in SB containing 1% paraformaldehyd and analyzed on a BD SLR II flow cytometer. The data were analyzed using FCS Express (De Novo Software, Los Angeles, Calif., USA).
Monocytes have the capacity to differentiate into macrophages or inflammatory DCs in-vitro and in-vivo (Auffray et al., (2009) Annu Rev. Immunol. 27, 669-92). Given that the NW peptide bound to blood monocytes, it was investigated whether this binding affects T-cell activation. Therefore, proliferation assays were performed with whole PBMCs. […]

[5] = system: autologous CD4 or CD8 T cells; test: Autologous stimulation of T lymphocytes by DCs exposed to targeted pp65 peptides, [3H] thymidine incorporation; type: cell-based, human; details: semi mDCs loaded at 4° C., HLA-A2+/CMV positive donors, 5 days
Experimental: as §1
The capacity of the NW-pp65 fusion peptide (60-mer) to activate T cells from HLA-A2+/CMV positive donors was evaluated. It should be noted that the 48-mer pp65 peptide contains both MHC class I (e.g. NLVPMVATV) (SEQ ID NO:19) and class II (e.g. AGILARNLVPMVATV (SEQ ID NO:23), FFWDANDIYRI (SEQ ID NO:24)) epitopes, allowing the detection of CD4 and CD8 T-cell responses (24-26). […] All cultures were incubated at 37° C. for 5 days and T-cell activation was determined by measuring their proliferation potential (FIG. 6A). […]

iDCs [6] = test: Phage binding by flow cytometry; set-up: species or system human; details: binding of the phage clones to iDC, flow cytometry
Experimental: (§4) In brief, aliquots of DCs (10^5) were divided into conical 96-well micro-plate, washed with PBS buffer containing 1% FCS, and then incubated with the amplified phages (≈10^9 TU) for 30-60 min on ice. After washing, cells were incubated with biotinylated anti-M13 monoclonal antibody (Abcam) and then with phycoerythrin (PE)-conjugated streptavidin. Competition assays were performed by pre-incubating DCs with different amounts of the peptides for 15 min on ice. Then NW phage (≈10^9 TU) was added and samples incubated for additional 60 min on ice. After washing, bound phages were detected as indicated above. Samples were analyzed by FACSCanto II flow cytometry.

Monocytes = test: Competition of NW phage binding by NW peptide and its mutant peptides; set-up: species or system human
Experimental: as §4
To uncover the contribution of individual side chains and identify which amino acids are responsible for the NW peptide binding to monocytes and dendritic cells, alanine scanning was performed. Derivatives of the NW peptide were synthesized with exchange of each amino acid by alanine (FIG. 11A). These peptide derivatives were used to compete with the NW phage binding to monocytes. For each peptide, four concentrations were tested. Bound phage particles were detected with the use of biotin conjugated anti-M13 antibody and PE-conjugated streptavidin. The NW peptide (WT) competed effectively with the phage binding to monocytes with an IC50 of approximately 0.5 uM. The replacement of tryptophan (W) at position 2, 6, or 12 by a single alanine abolished the binding. Indeed, no significant competition with the phage binding was seen even at high peptide concentrations (C4=20 uM). Similarly, replacement of leucine (L) at position 4 or 7 by alanine inhibited the peptide binding (FIG. 11B).

iDCs [7] = test: Binding and internalization of peptide-siRNA conjugates by microscopy; type: cell-based, human
Experimental: Then the medium was replaced with fresh medium and the cells were incubated with the peptides (5 μg/ml) for 60 min at 37° C. followed by 5 min incubation with Hoechst 33342 (Invitrogen Dynal AS, Oslo, Norway). The cells were washed twice with PBS and fixed with 4% paraformaldehyde for 15 min at 4° C. After washing, slides were covered with Dako cytomation fluorescent mounting medium and then images were taken with either epifluorescence (Leica DM RHC, Leica Microscopy As, Oslo, Norway) or confocal microscopy (Zeiss LSM 510, […]).
One of the major challenges to the clinical development of gene silencing by small interfering RNA (siRNA) is its effective delivery to target cells (Whitehead et al., Nat Rev Drug Discov 8, 129-138). Given the effective internalization of NW peptide by DCs, its potential to direct siRNAs to DCs was evaluated. First, a fluorescence labeled siRNA targeting mouse IL-10 was covalently conjugated to the NW-peptide (NW peptide with GGGSC (SEQ ID NO:43) linker) through a thiol linkage and then the binding of the conjugates to iDCs was investigated by epifluorescence microcopy. In contrast to free siRNA molecules, the peptide siRNA conjugates bound to DCs (FIG. 10A).

[8] = biological target: NW peptide receptor (human); test: competition with NW phage binding to monocytes, flow cytometry

Molecule: GALDTTHHRPWTGCFTWPPWQAGILARNLVPMVATVQGQNLKYQEFFWDANDIYRIFAEL [GA-60-mer, 48-mer CMV pp65 peptide fused to control peptide, reference compound]
dextramer-positive CD8 T cells specific for NLVPMVATV [1]: 0.51%
T-cell proliferation ([3H]-thymidine) (PBMCs): did not
pp65-specific naïve T cells (dextramer staining) [2]: 0.01%
proportion of CD8 and CD4 T cells that produced IFN-γ [3]: very low response
CTL response (dextramer staining) ([4]; monocyte-depleted PBMCs): 0.53%
CTL response (dextramer staining) ([4]; whole PBMCs, n=3): 0.45%
T-cell activation (proliferation, [3H]-thymidine) [5]: no significant effect

Binding (iDCs [6]): ++++ (Binding >80-100%: ++++)
Molecule: QWELPWLMQPPL [DC6]

Molecule: QLPRTAL [DC10]
Binding (iDCs [6]): +++ (binding <80%: +++)

mean fluorescence of bound phage (Monocytes; at C3 concentration (8 μM), unstained cells 250): ~250
competition with NW phage binding / peptide binding to monocytes (Monocytes; mutant peptides, four concentrations (0.4, 2, 8, 20 μM)): effectively competed
Molecule: N10D11 double mutant: NW peptide with asparagine 10 and aspartic acid 11 both replaced by alanine (NWYLPWLGTAAW)

Molecule: peptide siRNA conjugates: fluorescence labeled siRNA targeting mouse IL-10 covalently conjugated to NW peptide with GGGSC linker through a thiol linkage (NWYLPWLGTNDWGGGSC(siRNA); not fully specified; reading uncertain)
intracellular delivery of peptide-siRNA conjugates (iDCs [7]; confocal microscopy): confirmed the intracellular delivery
binding of peptide siRNA conjugates to DCs (iDCs [7]; epifluorescence microscopy, iDCs): bound to DCs

IC50 [8]: 500 nM
Molecule: NWYLPWLGTNDWC (also: carries 6-iodoacetamidofluorescein in direct binding assays) [NW peptide]
